Measured values published in ChEMBL document CHEMBL4052731, “Interconvertible geometric isomers of Plasmodium falciparum dihydroorotate dehydrogenase inhibitors exhibit multiple binding modes” (Bioorg Med Chem Lett, 2017).

Tests used:
[1] = Inhibition of homologous location truncated N-terminal His-tagged Plasmodium falciparum DHODH expressed in Escherichia coli pyrD Sphi6745 by spectrophotometric analysis
[2] = target: Dihydroorotate dehydrogenase (quinone), mitochondrial (Homo sapiens, UniProt Q02127); test: Inhibition of homologous location truncated N-terminal His-tagged human DHODH expressed in Escherichia coli pyrD Sphi6745 by spectrophotometric analysis
[3] = Selectivity ratio of IC50 for homologous location truncated N-terminal His-tagged human DHODH to IC50 for homologous location truncated N-terminal His-tagged Plasmodium falciparum DHODH

Dihydroorotate dehydrogenase (quinone), mitochondrial, sequence (Q02127 whole entry, the tested form may be a part): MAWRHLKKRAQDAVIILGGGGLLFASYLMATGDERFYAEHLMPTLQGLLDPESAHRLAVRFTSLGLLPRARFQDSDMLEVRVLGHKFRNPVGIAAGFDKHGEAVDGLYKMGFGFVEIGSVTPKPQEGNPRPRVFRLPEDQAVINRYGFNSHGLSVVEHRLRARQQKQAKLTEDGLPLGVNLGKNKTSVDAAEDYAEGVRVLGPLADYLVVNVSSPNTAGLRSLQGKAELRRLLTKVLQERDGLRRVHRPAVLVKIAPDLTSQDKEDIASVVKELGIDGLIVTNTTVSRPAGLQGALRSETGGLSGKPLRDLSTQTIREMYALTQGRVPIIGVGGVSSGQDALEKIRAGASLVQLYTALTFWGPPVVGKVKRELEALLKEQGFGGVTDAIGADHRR

| IC50 [1] | IC50 [2] | Ratio IC50 [3] | Structure (SMILES) | Ki [1] |
| --- | --- | --- | --- | --- |
| > 100000 nM | – | – | CCOC(=O)/C(C#N)=C(/C)Nc1ccc2c(c1)c1ccccc1n2CC | – |
| 380 nM | > 100000 nM | – | CCOC(=O)/C(=C\Nc1ccc2sc3ccccc3c2c1)[N+](=O)[O-] | 150 nM |
| 160 nM | – | – | CCOC(=O)C(=CNc1ccc2sc3ccccc3c2c1)C(=O)OCC | 20 nM |
| > 100000 nM | – | – | CC1(C)OC(=O)C(=CNc2ccc3sc4ccccc4c3c2)C(=O)O1 | – |
| 4400 nM | – | – | CCOC(=O)C(=CNc1ccc2c(c1)c1ccccc1n2CC)C(=O)OCC | – |
| > 100000 nM | – | – | CCOC(=O)/C(C#N)=C(/C)Nc1ccc2sc3ccccc3c2c1 | – |
| 1200 nM | – | – | CCOC(=O)/C(C#N)=C\Nc1ccc2sc3ccccc3c2c1 | – |
| 94 nM | > 100000 nM | – | CCOC(=O)/C(=C/Nc1ccc2c(c1)c1ccccc1n2CC)[N+](=O)[O-] | 37 nM |
| > 100000 nM | – | – | CCn1c2ccccc2c2cc(NC=C3C(=O)OC(C)(C)OC3=O)ccc21 | – |
| 280 to 440 nM | – | 1000 | CCOC(=O)/C(C#N)=C\Nc1ccc2c(c1)c1ccccc1n2CC | 50 nM |
| > 100000 nM | – | – | CCn1c2ccccc2c2cc(NC=C(C(C)=O)C(C)=O)ccc21 | – |
| > 100000 nM | – | – | CC(=O)C(=CNc1ccc2sc3ccccc3c2c1)C(C)=O | – |
